{"source": "patent US20260272874A1", "about": "“COMPOUNDS FOR THE TREATMENT AND PREVENTION OF VIRAL DISEASES” (priority 2023, published 2026)", "origin": "cited, not measured here", "key": {"[1]": {"tested_on": "corona viruses, SARS and MERS virus"}, "[2]": {"tested_on": "RNA helicase enzyme eIF4A", "conditions": "previous studies"}, "[3]": {"tested_on": "coronavirus"}, "[4]": {"tested_on": "SARS-CoV-2"}}, "data": [{"molecule": "Silvesterol", "values": [{"measurement": "antiviral activity", "setting": "[1]", "result": "broad spectrum antiviral activity"}, {"measurement": "inhibition of RNA helicase enzyme eIF4A", "setting": "[2]", "result": "potent and selective inhibitor"}]}, {"molecule": "4E2RCat", "values": [{"measurement": "coronavirus replication", "setting": "[3]", "result": "capable of blocking coronavirus replication"}]}, {"molecule": "COc1cc2c(c(OC)n1)[C@]1(O)[C@H](O)[C@H](CN(C)C)[C@@H](c3ccccc3)[C@]1(c1ccc(C#N)cc1)O2", "note": "[Zotatifin]", "values": [{"measurement": "antiviral activity against SARS-CoV-2", "setting": "[4]", "result": "shows antiviral activity"}]}]}
